Data from paper PMC6171417, “Carbonic anhydrase inhibition with a series of novel benzenesulfonamide-triazole conjugates” (Journal of Enzyme Inhibition and Medicinal Chemistry, 2018).

Experiments:
Experiment in all cases: cells
Set-up in all cases: species or system NCI human tumour cell line panel; NCI one-dose anti-proliferative screen, human tumour cell line panel, growth inhibition percent (GI%)
CCRF-CEM = details: Homo sapiens, CCRF-CEM; growth inhibition (GI%), single dose
Description: (§1) Ten of the newly synthesised 1,2,3-triazolo benzenesulfonamide derivatives were selected by NCI (Bethesda, MD) for evaluating their anti-proliferative activity. The selected compounds were subjected to a primary in vitro one-dose ([…]) anti-proliferative assay against 57 human tumour cell lines following the previously reported method[30] and their obtained growth inhibition percent (GI%) are presented in Table 2. A subset of ten triazolo-benzenesulfonamides (3, 5, 6, 7, 9, 11, 16–18, and 20) were selected and subjected to an in vitro anti-proliferative screening against a panel of 57 cancer cell lines at NCI at an initial high dose ([…]). The human cell lines used were derived from nine cancer types: leukaemia, lung, colon, CNS, melanoma, ovarian, renal, prostate and breast cancers.

EKVX = details: Homo sapiens, EKVX; growth inhibition (GI%), single dose
Description: as §1

HL-60(TB) = details: Homo sapiens, HL-60; growth inhibition (GI%), single dose
Description: as §1

HOP-62 = details: Homo sapiens, HOP-62; growth inhibition (GI%), single dose
Description: as §1

HOP-92 = details: Homo sapiens, HOP-92; growth inhibition (GI%), single dose
Description: as §1

HS 578T = details: Homo sapiens, Hs-578T; growth inhibition (GI%), single dose
Description: as §1

HT29 = details: Homo sapiens, HT-29; growth inhibition (GI%), single dose
Description: as §1

LOX IMVI = details: Homo sapiens, LOX IMVI; growth inhibition (GI%), single dose
Description: as §1

MCF7 = details: Homo sapiens, MCF7; growth inhibition (GI%), single dose
Description: as §1

MOLT-4 = details: Homo sapiens, MOLT-4; growth inhibition (GI%), single dose
Description: as §1

NCI-H226 = details: Homo sapiens, NCI-H226; growth inhibition (GI%), single dose
Description: as §1

NCI-H23 = details: Homo sapiens, NCI-H23; growth inhibition (GI%), single dose
Description: as §1

NCI-H322M = details: Homo sapiens, NCI-H322M; growth inhibition (GI%), single dose
Description: as §1

NCI-H522 = details: Homo sapiens, NCI-H522; growth inhibition (GI%), single dose
Description: as §1

SK-OV-3 = details: Homo sapiens, SK-OV-3; growth inhibition (GI%), single dose
Description: as §1

SNB-19 = details: Homo sapiens, SNB-19; growth inhibition (GI%), single dose
Description: as §1

SNB-75 = details: Homo sapiens, SNB-75; growth inhibition (GI%), single dose
Description: as §1

T-47D = details: Homo sapiens, T47D; growth inhibition (GI%), single dose
Description: as §1

U251 = details: Homo sapiens, U-251; growth inhibition (GI%), single dose
Description: as §1

UACC-257 = details: Homo sapiens, UACC-257; growth inhibition (GI%), single dose
Description: as §1

Structure (SMILES): CN(C)c1ccc(-c2nc3c(nnn3-c3ccc(S(N)(=O)=O)cc3)c(N)c2C#N)cc1 [compound 17, 4-(7-amino-6-cyano-5-(4-(dimethylamino)phenyl)-3H-[1,2,3]triazolo[4,5-b]pyridin-3-yl)benzenesulfonamide]
- inhibition at 10 µM (CCRF-CEM): 11.4%
- inhibition at 10 µM (EKVX): 17.2%
- inhibition at 10 µM (HL-60(TB)): 12.5%
- inhibition at 10 µM (HOP-62): 21.7%
- inhibition at 10 µM (HOP-92): 18.5%
- inhibition at 10 µM (HS 578T): 2.9%
- inhibition at 10 µM (HT29): 3.3%
- inhibition at 10 µM (LOX IMVI): 9.6%
- inhibition at 10 µM (MCF7): 7.3%
- inhibition at 10 µM (MOLT-4): 2.3%
- inhibition at 10 µM (NCI-H226): 16.9%
- inhibition at 10 µM (NCI-H23): 9.8%
- inhibition at 10 µM (NCI-H322M): 3.9%
- inhibition at 10 µM (NCI-H522): 14.8%
- inhibition at 10 µM (SK-OV-3): 12.3%
- inhibition at 10 µM (SNB-19): 0.8%
- inhibition at 10 µM (SNB-75): 21.6%
- inhibition at 10 µM (T-47D): 5.2%
- inhibition at 10 µM (U251): 12.6%
- inhibition at 10 µM (UACC-257): 8.4%
